The target in test [1] is T1, thrombin receptor (PAR-1) (Homo sapiens, UniProt P25116).
T1 construct: CHRF membranes (Jones, Biochim. Biophys. Acta 1992, 1136, 272) are thawed from −70° C; endogenous in cells; host or cells: CHRF cell membranes
T1 sequence (P25116 22-425): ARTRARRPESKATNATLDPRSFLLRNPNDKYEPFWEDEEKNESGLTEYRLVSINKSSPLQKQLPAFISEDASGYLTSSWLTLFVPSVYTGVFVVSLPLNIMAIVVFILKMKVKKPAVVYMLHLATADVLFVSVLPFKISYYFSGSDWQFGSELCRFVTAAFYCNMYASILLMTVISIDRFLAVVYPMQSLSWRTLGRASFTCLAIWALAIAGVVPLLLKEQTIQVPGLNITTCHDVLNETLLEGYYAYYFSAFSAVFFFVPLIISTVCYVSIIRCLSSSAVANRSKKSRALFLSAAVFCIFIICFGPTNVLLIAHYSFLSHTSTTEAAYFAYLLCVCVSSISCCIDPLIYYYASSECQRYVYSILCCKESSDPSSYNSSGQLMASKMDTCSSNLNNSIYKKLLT
The test is described as follows: In vitro thrombin receptor binding assay (CHRF membranes). Particulars: tritiated 721-40 radioligand, read-out: Bndg IC50 (Thrombin receptor binding). The method, boiled down:
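CHRF cell membranes incubated 30 min with tritiated peptide agonist 721–40 and compound at 3.7 μg/mL final (0.6% DMSO) in HEPES/MgCl2/BSA buffer. Nonspecific binding defined with unlabeled 721–40; bound radioactivity counted after filtration onto PEI-treated filters.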

For a further test, the system named is gel-filtered platelets. The test is described as follows: In vitro inhibition of thrombin-induced gel-filtered platelet aggregation. The class given is cell-based. Particulars: human gel-filtered platelets, agonist thrombin 50 μL of 1 unit/mL, read-out: Thrmb IC50 (Thrombin-induced aggregation of gel-filtered platelets). The method, boiled down: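 Gel-filtered (Sepharose 2B) human platelets from citrated PRP, 2×10^7 per sample, in Tyrode's buffer pH 7.4 with BSA and added calcium, preincubated with test compound. Aggregation induced by thrombin (50 μL of 1 unit/mL) and followed as light transmission over 3 min. Inhibition is taken relative to control-treated platelets.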

A word on the IC50: it is the concentration that gives 50% inhibition.

Like-named read-outs stand apart in the source and are kept apart here. A value given as a limit tells only on which side of the number the result lay.

With `N=C(N)NCCC[C@H](NC(=O)[C@H](Cc1ccc(F)c(F)c1)NC(=O)Nc1ccc2c(CN3CCCC3)cn(Cc3ccccc3Cl)c2c1)C(=O)NCc1ccccc1` [Compound 55], the IC50 in test [1] was 11.3 µM; in the test with gel-filtered platelets (Platelet) it was 0.34 µM.
The matching figures for `COc1ccc(C[C@H](NC(=O)Nc2ccc3c(CN4CCCC4)cn(Cc4ccc(OC)cc4)c3c2)C(=O)N[C@@H](CCCNC(=N)N)C(=O)NCc2ccccc2)cc1` [Compound 20]: 17.1 µM and 26.6 µM.
For `Cc1cccc(Cn2cc(CN3CCCC3)c3ccc(NC(=O)N[C@@H](Cc4ccc(F)c(F)c4)C(=O)N[C@@H](Cc4cccs4)C(=O)NCCCN)cc32)c1` [Compound 153] the same measures were 27 µM and 0.79 µM.
For `NCCC[C@H](NC(=O)[C@H](Cc1ccc(Cl)cc1)NC(=O)Nc1ccc2c(CN3CCCC3)cn(Cc3c(Cl)cccc3Cl)c2c1)C(=O)NCc1ccccc1Cl` [Compound 99] the same measures were 1.4 µM and 0.74 µM.
`Cc1ccccc1Cn1cc(CN2CCC(N(C)C)C2)c2ccc(NC(=O)N[C@H](Cc3ccc(F)c(F)c3)C(=O)N[C@@H](CCCN=C(N)N)C(=O)NCc3ccccc3)cc21` (some centres unmarked) [Compound 90]: the IC50 in test [1] is 15.8 µM; in the test on gel-filtered platelets (Platelet) it was over 10 µM.
The matching figures for `Cc1ccccc1Cn1cc(CN2CCCC2)c2ccc(NC(=O)N[C@@H](Cc3cccnc3)C(=O)N[C@@H](CCCNC(=N)N)C(=O)NCc3ccccc3)cc21` [Compound 31]: 8.4 µM and over 10 µM.
As to `CN(Cc1ccccc1)C(=O)[C@H](CCCN)NC(=O)[C@H](Cc1ccc(F)c(F)c1)NC(=O)Nc1ccc2c(CN3CCCC3)cn(Cc3c(Cl)cccc3Cl)c2c1` [Compound 111], the IC50 in test [1] is 1.9 µM; in the test on gel-filtered platelets (Platelet), 3.2 µM.
The matching figures for `COc1ccc(CNC(=O)[C@H](CCCNC(=N)N)NC(=O)[C@H](Cc2ccc(F)c(F)c2)NC(=O)Nc2ccc3c(CN4CCCC4)cn(Cc4c(Cl)cccc4Cl)c3c2)cc1` [Compound 61]: 0.3 µM and 1.4 µM.
The matching figures for `Cc1ccccc1Cn1cc(CN2CCCC2)c2ccc(NC(=O)N[C@@H](Cc3ccc(F)c(F)c3)C(=O)N[C@@H](CCCNC(=N)N)C(=O)NCCc3ccccc3Cl)cc21` [Compound 64]: 0.23 µM and 2.2 µM.
For `COC[C@H]1CCCN1Cc1cn(Cc2c(Cl)cccc2Cl)c2cc(NC(=O)N[C@@H](Cc3ccc(Cl)cc3)C(=O)N[C@@H](CCCNC(=N)N)C(=O)NCc3ccccc3)ccc12` [Compound 87] the same measures were 0.28 µM and 1.3 µM.
For `COc1ccc(C[C@H](NC(=O)Nc2ccc3c(CN4CCCC4)cn(Cc4ccccc4C)c3c2)C(=O)N[C@@H](CCCNC(=N)N)C(=O)NCc2ccccc2)cc1` [Compound 17], the figures for the IC50 (in test [1]; in the test with gel-filtered platelets (Platelet)) were 0.97 µM and 0.42 µM, respectively.
For `Cc1ccccc1Cn1cc(CN2CCCC2)c2ccc(NC(=O)N[C@@H](Cc3c(F)c(F)c(F)c(F)c3F)C(=O)N[C@@H](CCCNC(=N)N)C(=O)NCc3ccccc3)cc21` [Compound 50] the same measures were 7.6 µM and 0.8 µM.
For `Cc1ccccc1Cn1c(Cl)c(CN2CCCC2)c2ccc(NC(=O)N[C@@H](Cc3ccc(F)c(F)c3)C(=O)N[C@@H](CCCNC(=N)N)C(=O)NCc3ccccc3)cc21` [Compound 172] the same measures were 6.8 µM and over 10 µM.
The matching figures for `N=C(N)NCCC[C@H](NC(=O)[C@H](Cc1ccccc1F)NC(=O)Nc1ccc2c(CN3CCCC3)cn(Cc3c(Cl)cccc3Cl)c2c1)C(=O)NCc1ccccc1` [Compound 51]: 0.8 µM and 0.68 µM.
On to `CC(=O)NCCC[C@H](NC(=O)[C@H](Cc1ccc(F)c(F)c1)NC(=O)Nc1ccc2c(CN3CCCC3)cn(Cc3c(Cl)cccc3Cl)c2c1)C(=O)NCc1ccccc1` [Compound 94], for which the results for the IC50 (in test [1]; with gel-filtered platelets (Platelet)) were 0.81 µM and 10 µM, respectively.
The matching figures for `COc1ccc(C[C@H](NC(=O)Nc2ccc3c(CN4CCC4)cn(Cc4ccc(F)cc4)c3c2)C(=O)N[C@@H](CCCNC(=N)N)C(=O)NCc2ccccc2)cc1` [Compound 44]: 3.3 µM and 9.7 µM.
The matching figures for `CC(=N)NCCNC(=O)[C@H](CCNC(C)=N)NC(=O)[C@H](Cc1ccc(F)c(F)c1)NC(=O)Nc1ccc2c(CN3CCCC3)cn(Cc3c(Cl)cccc3Cl)c2c1` [Compound 140]: 0.12 µM and 0.74 µM.
In the case of `NC(N)=NCCC[C@H](NC(=O)[C@H](CCc1ccccc1)NC(=O)Nc1ccc2c(CN3CCCC3)cn(Cc3ccc(F)cc3)c2c1)C(=O)NCc1ccccc1` [Compound 27], the IC50 in test [1] is 14.6 µM; in the test with gel-filtered platelets (Platelet) it was 27.3 µM.
The matching figures for `Cc1ccccc1Cn1cc(CN2CCCC2)c2ccc(NC(=O)N[C@H](C(=O)N[C@@H](CCCNC(=N)N)C(=O)NCc3ccccc3)c3ccccc3)cc21` [Compound 29]: 8.4 µM and over 10 µM.
Consider `C=CCN(C)Cc1cn(Cc2c(Cl)cccc2Cl)c2cc(NC(=O)N[C@@H](Cc3cccc(F)c3)C(=O)N[C@@H](CCCN)C(=O)NC3Cc4ccccc4C3)ccc12` [Compound 97], for which the IC50 in test [1] was found to be 1.7 µM; in the test with gel-filtered platelets (Platelet) it was 18.8 µM.
For `NCC[C@H](NC(=O)[C@H](Cc1ccc(F)c(F)c1)NC(=O)Nc1ccc2c(c1)c(CN1CCCC1)cn2Cc1ccc(F)cc1)C(=O)NCc1ccccc1` [Compound 164] the same measures were 11.8 µM and 13.6 µM.
The matching figures for `CCCCN(CCCC)Cc1cn(Cc2ccccc2C)c2cc(NC(=O)N[C@@H](Cc3cc(F)cc(F)c3)C(=O)N[C@@H](CCCNC(=N)N)C(=O)NCc3ccccc3)ccc12` [Compound 58]: 1.5 µM and over 10 µM.
Regarding `COc1ccc(C[C@H](NC(=O)Nc2ccc3c(CN4CCCC4)cn(Cc4ccccc4F)c3c2)C(=O)N[C@@H](CCCNC(=N)N)C(=O)NCc2ccccc2)cc1` [Compound 7], the figures for the IC50 (in test [1]; in the test with gel-filtered platelets (Platelet)) were 3.6 µM and 1.31 µM, respectively.
As for `NCCNC(=O)[C@H](CSC(c1ccccc1)(c1ccccc1)c1ccccc1)NC(=O)[C@H](Cc1ccc(F)c(F)c1)NC(=O)Nc1ccc2c(CN3CCCC3)cn(Cc3c(Cl)cccc3Cl)c2c1` [Compound 151], the IC50 in test [1] was 0.45 µM; in the test with gel-filtered platelets, 2.9 µM.
Take `C=CCOc1ccc(C[C@H](NC(=O)Nc2ccc3c(CN4CCCC4)cn(Cc4cccc(C)c4)c3c2)C(=O)N[C@@H](CCCNC(=N)N)C(=O)NCc2ccccc2)cc1` [Compound 34]: the IC50 in test [1] turned out to be 9.7 µM; in the test on gel-filtered platelets (Platelet) it was 16.3 µM.
As to `NCCNC(=O)[C@@H](Cc1cccs1)NC(=O)[C@@H](Cc1ccc(Cl)cc1)NC(=O)c1ccc2c(CN3CCCC3)cn(Cc3c(Cl)cccc3Cl)c2c1` [Compound 178], the IC50 in test [1] stood at 9.9 µM; with gel-filtered platelets (Platelet), 40.7 µM.
The matching figures for `CC(=O)NCCCC[C@H](NC(=O)[C@H](Cc1ccc(F)c(F)c1)NC(=O)Nc1ccc2c(CN3CCCC3)cn(Cc3c(Cl)cccc3Cl)c2c1)C(=O)NCc1ccccc1` [Compound 71]: 3 µM and 0.55 µM.
For `NC(=O)NCCC[C@H](NC(=O)[C@H](Cc1cccc(F)c1)NC(=O)Nc1ccc2c(CN3CCCC3)cn(Cc3c(Cl)cccc3Cl)c2c1)C(=O)NCc1ccccc1` [Compound 77] the same measures were 0.62 µM and 29.5 µM.
For `COc1ccc(C[C@H](NC(=O)Nc2ccc3c(CNCCCN4CCCC4)cn(Cc4ccc(F)cc4)c3c2)C(=O)N[C@@H](CCCNC(=N)N)C(=O)NCc2ccccc2)cc1` [Compound 33] the same measures were 5.4 µM and 54.7 µM.
In the case of `COCC[C@H](NC(=O)[C@H](Cc1ccc(F)c(F)c1)NC(=O)Nc1ccc2c(CN3CCCC3)cn(Cc3c(Cl)cccc3Cl)c2c1)C(=O)NCCN` [Compound 156], the IC50 in test [1] came out at 0.04 µM; with gel-filtered platelets (Platelet), 0.6 µM.
As for `NCC[C@H](NC(=O)[C@H](Cc1ccc(F)c(F)c1)NC(=O)Nc1ccc2c(CN3CCCC3)cn(Cc3c(Cl)cccc3Cl)c2c1)C(=O)NCCN1CCCC1` [Compound 141], the IC50 in test [1] amounted to 0.07 µM; in the test with gel-filtered platelets (Platelet), 0.2 µM.
For `N=C(N)NCCC[C@H](NC(=O)CCNC(=O)[C@H](Cc1ccc(F)c(F)c1)NC(=O)Nc1ccc2c(CN3CCCC3)cn(Cc3c(Cl)cccc3Cl)c2c1)C(=O)NCc1ccccc1` [Compound 108] the same measures were 2.6 µM and 3.7 µM.
Regarding `NCC[C@H](NC(=O)[C@H](Cc1cscn1)NC(=O)Nc1ccc2c(CN3CCCC3)cn(Cc3c(Cl)cccc3Cl)c2c1)C(=O)NCc1ccccc1` [Compound 132], the IC50 in test [1] is 4.2 µM; in the test on gel-filtered platelets (Platelet) it was 22 µM.
The matching figures for `N=C(N)NCCC[C@H](NC(=O)[C@H](Cc1ccc(F)c(F)c1)NC(=O)Nc1ccc2c(CN3CCCC3)cn(Cc3c(Cl)cccc3Cl)c2c1)C(=O)NCc1ccc(F)cc1` [Compound 59]: 0.14 µM and 0.88 µM.

These data come from US7183252B2, “Indole peptidomimetics as thrombin receptor antagonists” (Ortho-McNeil Pharmaceutical, Inc., priority 1999, dated 2007).
